# Test results published in publication PMC8187479, “Sugar phosphate activation of the stress sensor eIF2B” (Nature Communications, 2021).
# Numbering of substitutions follows the chain as printed. “And” between values parts separate entries of the source, which are not always exact repeats. Identical values can stand only once.
# T1: eIF2Bα (Homo sapiens, UniProt Q14232)
# T1 construct: made in house; host or cells: E. coli BL21(DE3)
# T1 sequence (Q14232 1-305): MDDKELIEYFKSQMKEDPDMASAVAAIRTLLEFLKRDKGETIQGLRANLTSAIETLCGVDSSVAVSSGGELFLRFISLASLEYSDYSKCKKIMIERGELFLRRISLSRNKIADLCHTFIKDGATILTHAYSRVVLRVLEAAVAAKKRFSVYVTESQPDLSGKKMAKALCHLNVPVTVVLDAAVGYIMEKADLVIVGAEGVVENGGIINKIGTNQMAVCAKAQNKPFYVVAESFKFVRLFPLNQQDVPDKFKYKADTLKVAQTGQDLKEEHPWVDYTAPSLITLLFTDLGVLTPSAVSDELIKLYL
# T2: eIF2Bα^V183F (Homo sapiens, UniProt Q14232, V183F)
# T2 construct: made in house; host or cells: E. coli BL21(DE3)
# T2 sequence (Q14232 1-305 V183F): T1 sequence (Q14232 1-305) with V183F
# B1: eIF2Bα (eukaryotic translation initiation factor 2B, α subunit), wild type, recombinant (natural protein, human)
# chain: T1 sequence (Q14232 1-305)
# notes: eIF2Bα, human, UniProt Q14232; called the small 34 kDa eIF2Bα subunit; C-terminal TEV-avi-FLAG tag; also called eIF2Bα2; α2
# Tests used:
# [1] = tested on: recombinant C. thermophilum eIF2Bα; set-up: method as in PMID 26384431; conditions: ITC; cited from earlier work
# eIF2Bα [2] = target: T1, eIF2Bα; assay: MIDAS (mass spectrometry integrated with equilibrium dialysis) metabolite binding screen; conditions: MIDAS screen, sheet eIF2Ba; metabolites screened in pools 1-4; p-value and q-value given
# Method in brief: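 Hits called at Storey q < 0.1 on z-scores of PCA-corrected log2 fold change between protein and metabolite chambers, quantified by FIA-MS in triplicate.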
# eIF2B = target: T3, eIF2B (Homo sapiens, UniProt P49770+Q14232+Q9UI10); assay: eIF2B GEF activity assay, unbiased metabolite screen (Bodipy-FL-GDP release); type: biochemical; conditions: 10 μM metabolite
# T3 construct: made in house; host or cells: eIF2Bα: E. coli BL21(DE3)
# Description: (§1) Bodipy-FL-GDP-loaded eIF2 was used as a substrate for recombinant eIF2B. The assay was performed in 384-well plates. Reactions were read on a SpectraMax i3x plate reader (Molecular Devices) using the instrument’s Softmax Pro software with the following parameters: plate temperature = 25 °C; excitation wavelength = 485 nm (15 nm width); emission wavelength = 535 nm (25 nm width); read duration = 30 min at 45 s intervals. Data were analyzed in Prism. GDP release half-lives were calculated by fitting single-exponential decay curves.
# For unbiased screening, MIDAS metabolite libraries at 10 mM stock concentration were dispensed into wells of the assay plate using an Echo Acoustic Liquid Handler (Labcyte). […] A single well was run for each metabolite. […] For targeted experiments with HEK293T lysates, the following conditions were used: 50 nM Bodipy-FL-GDP-loaded eIF2, 0.1 mM GDP, 1 mg/ml BSA, 0.1 or 0.3 mg/ml lysates.
# eIF2Bα [3] = target: T1, eIF2Bα; assay: Differential scanning fluorimetry (Protein Thermal Shift), eIF2Bα Tm; type: binding; conditions: individual replicates Rep 1-4, control without metabolite about 64.1
# Description: The effect of metabolite binding on eIF2Bα Tm was assessed using the Protein Thermal Shift assay (Thermo Fisher), following manufacturer’s instructions. Briefly, reaction conditions for each 20 μL reaction were: 1.1 μg (1.5 μM) of eIF2Bα, 5 μl Thermal Shift buffer, 1X Thermal Shift dye, and metabolites in dose response. Reactions were run in 384-well format on a QuantStudio 6 Flex instrument (Thermo Fisher). The resulting melt curves were analyzed using Protein Thermal Shift Software, and eIF2Bα Tms for each condition were calculated by fitting to the Boltzmann function.
# [4] = target: T4, eIF2B in eIF2Bα^E198K HEK293T lysate (Homo sapiens, UniProt P49770+Q14232+Q9UI10, E198K); assay: GEF activity assay with eIF2Bα E198K HEK293T lysate; type: biochemical
# T4 construct: endogenous in cells; host or cells: HEK293T, CRISPR knock-in eIF2Bα E198K (homozygous), lysate
# Description: as §1
# (§2) For unbiased screening, MIDAS metabolite libraries at 10 mM stock concentration were dispensed into wells of the assay plate using an Echo Acoustic Liquid Handler (Labcyte). In a final assay volume of 10 μL/well, the following conditions were kept constant: 25 nM Bodipy-FL-GDP-loaded eIF2, 4 nM phospho-eIF2, 0.1 mM GDP, 1 mg/mL BSA, 1 nM eIF2B, 10 μM metabolite. A single well was run for each metabolite. For targeted experiments with recombinant wild-type and mutant eIF2Bα, the following conditions were used: 50 nM Bodipy-FL-GDP-loaded eIF2, 0.1 mM GDP, 1 mg/ml BSA, 20 nM eIF2B. For targeted experiments with HEK293T lysates, the following conditions were used: 50 nM Bodipy-FL-GDP-loaded eIF2, 0.1 mM GDP, 1 mg/ml BSA, 0.1 or 0.3 mg/ml lysates.
# [5] = target: T5, eIF2B in WT HEK293T lysate (Homo sapiens, UniProt P49770+Q14232+Q9UI10); assay: GEF activity assay with WT HEK293T lysate; type: biochemical
# T5 construct: endogenous in cells; host or cells: HEK293T (wild type) lysate
# Description: as §1, §2
# [6] = target: T6, phospho-eIF2α binding to eIF2B (Homo sapiens, UniProt P49770+Q14232+Q9UI10); assay: Phospho-eIF2α co-immunoprecipitation with FLAG-tagged eIF2B; conditions: lysate of thapsigargin-treated HEK293T eIF2Bβ-FLAG cells; ligand 2 h at 4 °C
# T6 construct: endogenous in cells; host or cells: HEK293T with FLAG knock-in at the endogenous eIF2Bβ locus, treated with thapsigargin; lysate, anti-FLAG IP
# Description: HEK293T cells endogenously expressing eIF2Bβ with a C-terminal FLAG tag were maintained in DMEM High Glucose (Corning CellGro) supplemented with 10% FBS (Gibco) and antibiotic-antimycotic (Gibco). Upon reaching 90% confluency, cells were treated with either DMSO or 100 nM thapsigargin (Sigma) for 4 h. Cells were harvested and lysed in 25 mM HEPES, 150 mM KCl, 1% NP-40, 1 mM EDTA, pH 7.4 + Complete protease inhibitor cocktail (Roche) and PhosStop (Roche) on ice for 20 min. Lysates were cleared by centrifugation at 18,000 × g, 20 min, 4 °C, and transferred to Eppendorf tubes containing anti-FLAG M2 magnetic beads (Sigma). Mixtures were incubated overnight at 4 °C. To test the effect of ligands, these were added to the mixtures and incubated for an additional 2 h at 4 °C. Beads were washed three times with lysis buffer, eluted with 1× LDS buffer (Invitrogen), and subjected to SDS-PAGE followed by Western Blot with the indicated antibodies.
# [7] = target: T7, recombinant eIF2B(βδγε) ± eIF2Bα2 (Homo sapiens, UniProt P49770+Q9UI10); assay: Size-exclusion chromatography of recombinant eIF2B(βδγε) with or without eIF2Bα; type: biochemical; conditions: SEC, recombinant eIF2B(βδγε); 500 nM ISRIB, 200 μM F6P
# T7 construct: made in house; host or cells: eIF2Bα: E. coli BL21(DE3)
# Description: (§3) Purified proteins were thawed and centrifuged at 20,000 × g, 10 min, 4 °C to remove any potential precipitate. Concentrations of eIF2B(βδγε) and eIF2Bα were normalized to 2 μM and 2.4 μM, respectively. 0.2 mL of each mixture was injected onto a Superose 6 Increase 10/300 column connected to an AKTA Pure 25 FPLC system (GE Healthcare). The system was run at 0.5 mL/min for 1 h using 25 mM HEPES, 200 mM KCl, 2 mM MgCl2, 1 mM DTT, pH 7.5 as the mobile phase. For conditions with ISRIB, the protein samples and mobile phase were supplemented with 500 nM ISRIB. For conditions with F6P, the protein samples and mobile phase were supplemented with 200 μM F6P. UV280 measurements were obtained directly by the instrument.
# [8] = target: T8, recombinant eIF2B(βδγε) ± eIF2Bα2 (Homo sapiens, UniProt P49770+Q14232+Q9UI10); assay: as above; type: biochemical; conditions: SEC, recombinant eIF2B(βδγε) + eIF2Bα2; 500 nM ISRIB, 200 μM F6P
# T8 construct: made in house; host or cells: eIF2Bα: E. coli BL21(DE3)
# Description: as §3
# [9] = target: T9, eIF2B decamer in eIF2Bα^E198K HEK293T lysate (Homo sapiens, UniProt P49770+Q14232+Q9UI10, E198K); assay: Sucrose gradient centrifugation, eIF2B complex assembly, eIF2Bα E198K HEK293T lysate; type: biochemical
# T9 construct: endogenous in cells; host or cells: HEK293T, CRISPR knock-in eIF2Bα E198K (homozygous), lysate
# Description: (§4) WT or eIF2Bα mutant HEK293T cells were harvested and lysed in 50 mM HEPES, 400 mM KCl, 1 mM DTT, 4 mM Mg(OAc)2, pH 7.5 + 0.5% Triton-X-100 + EDTA-free protease inhibitor cocktail (Roche) on ice for 30 min. Lysates were cleared by centrifugation at 48,000 × g, 4 °C for 30 min. 100 μL of each cleared lysate was loaded onto a 5–20% sucrose gradient prepared in a 13 × 51 mm ultracentrifuge tube using a Gradient Station (Biocomp) and centrifuged in a SW55 Ti rotor at 152,000 × g, 4 °C for 12 h. After centrifugation, 24 × 200 μL fractions were manually collected from the top to bottom of each gradient. Each fraction was subjected to methanol/chloroform precipitation and SDS-PAGE followed by Western Blot with the indicated antibodies. Blots were imaged on a ChemiDoc MP (Bio-Rad), and band intensities were quantified using the instrument’s Image Lab software. Each value was then divided by total intensity obtained across all fractions to determine percent enrichment of each subunit in each fraction.
# eIF2Bα^V183F = target: T2, eIF2Bα^V183F; assay: Size-exclusion chromatography of recombinant eIF2Bα V183F, alone or with eIF2B(βδγε); type: biochemical; conditions: SEC, eIF2Bα V183F alone
# Description: as §3
# [10] = target: T10, eIF2B decamer in WT HEK293T lysate (Homo sapiens, UniProt P49770+Q14232+Q9UI10); assay: Sucrose gradient centrifugation, eIF2B complex assembly, WT HEK293T lysate; type: biochemical; conditions: 400 mM KCl, 5–20% sucrose gradient
# T10 construct: endogenous in cells; host or cells: HEK293T (wild type) lysate
# Description: as §4
# [11] = target: T11, eIF2B decamer in eIF2Bα^V183F HEK293T lysate (Homo sapiens, UniProt P49770+Q14232+Q9UI10, V183F); assay: Sucrose gradient centrifugation, eIF2B complex assembly, eIF2Bα V183F HEK293T lysate; type: biochemical; conditions: 500 nM ISRIB, 200 μM F6P
# T11 construct: endogenous in cells
# Description: as §4
# [12] = target: the molecule itself; assay: SEC; purified eIF2Bα alone, 2.4 μM, Superose 6 Increase 10/300, 25 mM HEPES, 200 mM KCl, 2 mM MgCl2, 1 mM DTT, pH 7.5; no ligand (500 nM ISRIB had no effect)
# T11 sequence (Q14232 whole entry V183F): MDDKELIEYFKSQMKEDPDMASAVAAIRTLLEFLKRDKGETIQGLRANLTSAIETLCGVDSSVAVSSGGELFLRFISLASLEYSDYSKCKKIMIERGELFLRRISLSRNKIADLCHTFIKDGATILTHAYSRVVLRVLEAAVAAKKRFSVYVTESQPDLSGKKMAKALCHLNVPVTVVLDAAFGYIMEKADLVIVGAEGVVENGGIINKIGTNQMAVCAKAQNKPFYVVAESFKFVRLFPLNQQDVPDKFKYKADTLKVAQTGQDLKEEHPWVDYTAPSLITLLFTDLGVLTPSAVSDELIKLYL
# T11 sequence (P49770 whole entry): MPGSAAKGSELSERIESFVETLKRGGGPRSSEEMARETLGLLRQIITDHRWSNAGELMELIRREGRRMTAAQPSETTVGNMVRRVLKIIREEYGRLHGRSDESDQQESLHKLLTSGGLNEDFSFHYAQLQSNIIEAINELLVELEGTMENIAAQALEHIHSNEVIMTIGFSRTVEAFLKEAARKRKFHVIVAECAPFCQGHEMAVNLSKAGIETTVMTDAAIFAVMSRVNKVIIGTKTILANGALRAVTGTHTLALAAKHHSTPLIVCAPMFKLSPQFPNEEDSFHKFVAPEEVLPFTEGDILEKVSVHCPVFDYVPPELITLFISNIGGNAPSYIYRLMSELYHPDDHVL
# T11 sequence (Q9UI10 whole entry): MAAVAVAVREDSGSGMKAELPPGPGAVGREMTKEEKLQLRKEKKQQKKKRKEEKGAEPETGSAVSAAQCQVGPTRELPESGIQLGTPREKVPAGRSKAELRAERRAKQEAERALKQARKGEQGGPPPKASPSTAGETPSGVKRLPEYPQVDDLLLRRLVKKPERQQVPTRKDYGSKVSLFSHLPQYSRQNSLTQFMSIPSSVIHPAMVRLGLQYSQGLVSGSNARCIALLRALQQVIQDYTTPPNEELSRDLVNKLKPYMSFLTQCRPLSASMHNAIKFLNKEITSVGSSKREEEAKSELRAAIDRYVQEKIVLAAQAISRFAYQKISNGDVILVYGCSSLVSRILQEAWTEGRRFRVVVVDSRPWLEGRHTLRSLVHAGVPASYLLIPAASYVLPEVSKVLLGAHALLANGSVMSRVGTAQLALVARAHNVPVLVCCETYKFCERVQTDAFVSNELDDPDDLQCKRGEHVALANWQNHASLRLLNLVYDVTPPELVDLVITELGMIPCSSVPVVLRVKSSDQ
# T11 sequence (Q9NR50 whole entry partner): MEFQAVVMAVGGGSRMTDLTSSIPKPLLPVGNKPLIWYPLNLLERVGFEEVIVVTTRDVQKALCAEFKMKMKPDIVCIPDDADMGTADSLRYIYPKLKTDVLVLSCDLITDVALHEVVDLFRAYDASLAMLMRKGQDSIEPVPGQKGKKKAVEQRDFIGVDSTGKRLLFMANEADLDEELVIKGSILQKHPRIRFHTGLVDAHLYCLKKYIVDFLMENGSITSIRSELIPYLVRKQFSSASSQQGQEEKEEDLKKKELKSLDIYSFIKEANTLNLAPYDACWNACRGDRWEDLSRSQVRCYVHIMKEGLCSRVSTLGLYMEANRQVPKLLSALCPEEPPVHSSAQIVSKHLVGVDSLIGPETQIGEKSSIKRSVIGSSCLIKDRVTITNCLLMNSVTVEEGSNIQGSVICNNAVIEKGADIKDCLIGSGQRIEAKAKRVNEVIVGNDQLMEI
# T11 sequence (Q13144 whole entry partner): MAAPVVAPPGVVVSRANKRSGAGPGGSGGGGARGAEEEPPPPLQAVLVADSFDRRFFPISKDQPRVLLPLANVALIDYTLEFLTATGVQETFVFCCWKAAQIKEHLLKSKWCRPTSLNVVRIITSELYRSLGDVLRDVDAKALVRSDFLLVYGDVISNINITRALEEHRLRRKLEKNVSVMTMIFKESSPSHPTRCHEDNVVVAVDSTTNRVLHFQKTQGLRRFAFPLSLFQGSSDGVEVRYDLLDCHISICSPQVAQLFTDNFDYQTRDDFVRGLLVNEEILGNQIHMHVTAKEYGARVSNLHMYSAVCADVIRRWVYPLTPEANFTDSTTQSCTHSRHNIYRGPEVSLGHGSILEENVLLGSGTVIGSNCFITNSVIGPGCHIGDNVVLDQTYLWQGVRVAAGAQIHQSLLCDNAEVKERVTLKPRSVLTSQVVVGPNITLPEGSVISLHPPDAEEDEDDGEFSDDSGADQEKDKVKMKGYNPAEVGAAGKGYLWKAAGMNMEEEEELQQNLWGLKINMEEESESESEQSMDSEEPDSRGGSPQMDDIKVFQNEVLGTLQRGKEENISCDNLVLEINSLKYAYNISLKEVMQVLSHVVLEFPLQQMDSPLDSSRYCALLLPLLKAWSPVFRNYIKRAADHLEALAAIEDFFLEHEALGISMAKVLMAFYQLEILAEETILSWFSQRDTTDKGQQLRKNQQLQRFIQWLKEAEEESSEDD
# T6 sequence (P49770 whole entry, one chain of several): as the sequence (P49770 whole entry) above
# T6 sequence (Q9UI10 whole entry, one chain of several): as the sequence (Q9UI10 whole entry) above
# T6 sequence (Q9NR50 whole entry partner, one chain of several): as the sequence (Q9NR50 whole entry partner) above
# T6 sequence (Q13144 whole entry partner, one chain of several): as the sequence (Q13144 whole entry partner) above
molecule,measurement,setting,value
"Nc1ncnc2c1ncn2[C@@H]1O[C@H](COP(=O)(O)O)[C@@H](O)[C@H]1O [AMP, Adenosine monophosphate]",binding to C. thermophilum eIF2Bα,[1],binding
same,log2(corrected fold change),eIF2Bα [2],0.1066
same,effect on eIF2B GEF activity in the screen,eIF2B,a hit in this functional assay screen
same,Tm of eIF2Bα,eIF2Bα [3]; 0.33 mM metabolite,65.271 °C and 65.2418 °C and 65.0115 °C and 64.5232 °C
same,Tm of eIF2Bα,eIF2Bα [3]; 1 mM metabolite,66.0123 °C and 65.9255 °C and 65.7398 °C and 64.0959 °C
same,Tm of eIF2Bα,eIF2Bα [3]; 3.3 mM metabolite,65.3392 °C and 65.2463 °C and 65.3342 °C and 64.7156 °C
same,Tm of eIF2Bα,eIF2Bα [3]; 10 mM metabolite,66.4657 °C and 66.4512 °C and 66.2897 °C and 64.6159 °C
Nc1nc2c(ncn2[C@@H]2O[C@H](COP(=O)(O)O)[C@@H](O)[C@H]2O)c(=O)[nH]1 [GMP],binding to C. thermophilum eIF2Bα,[1],binding
same,Tm of eIF2Bα,eIF2Bα [3]; 0.33 mM metabolite,65.0444 °C and 64.6931 °C and 64.6421 °C and 63.969 °C
same,Tm of eIF2Bα,eIF2Bα [3]; 1 mM metabolite,65.9427 °C and 65.8956 °C and 65.7456 °C and 64.3903 °C
same,Tm of eIF2Bα,eIF2Bα [3]; 3.3 mM metabolite,65.9427 °C and 65.7951 °C and 65.7602 °C and 64.8164 °C
same,Tm of eIF2Bα,eIF2Bα [3]; 10 mM metabolite,66.5064 °C and 66.3635 °C and 66.1504 °C and 64.9333 °C
"O=C(COc1ccc(Cl)cc1)NC1CCC(NC(=O)COc2ccc(Cl)cc2)CC1 (stereo not shown) [ISRIB, reference compound]",effect on GEF activity of eIF2Bα E198K lysate,[4],boosted
same,effect on GEF activity of WT lysate,[5],stimulated
same,co-immunoprecipitation of phospho-eIF2α with FLAG-tagged eIF2B,[6],significantly disrupted
same,complex formation in the absence of eIF2Bα,[7],enhanced formation of an (βδγε)2 octamer
same,complex formation in the presence of eIF2Bα,[8],enhanced formation
same,eIF2B decamer formation,[9],produced a shift to the decameric form
same,monomer-to-dimer shift of eIF2Bα V183F,eIF2Bα^V183F,had no effect
same,eIF2B decamer formation (migration of eIF2Bα and eIF2Bδ),[10],formation of the decameric holoenzyme
same,eIF2B decamer formation,[11],promoted decamer formation at comparable levels
B1,stoichiometry N,[12],2
